From paper PMC11721293 (JCI Insight, 2025) come the findings set out here.

Values joined by “and” are separate entries in the source; they are usually repeats but may differ in a detail not shown here. Identical values can stand only once. Like-named read-outs stand apart in the source and are kept apart here.

Data set [1] deals with SARS-CoV-2-nLUC. As to the kind of experiment: microbe, parasite or virus in culture. It counts as cell-based. Particulars: for EC50: Severe acute respiratory syndrome coronavirus 2, Vero C1008, 24 h, VeroE6, 24 h, Fig 1G, Fig 5B, read-out: EC50.
Another data set concerns SARS-CoV-2. The format is cell-based. Details: TOA: unit not given here.
Data set [2] has as its system FTase (HDJ2 farnesylation). As to the kind of experiment: HDJ2 electrophoretic mobility shift (Western blot). The format is cell-based. To be noted: 24 h treatment. (Mobility shift assays separate free from complexed probe on a gel.)
A short description of a further data set: in vitro. Particulars: African green monkey.
The subject of data set [3] is VSV-SARS-CoV-2-S pseudovirus. As to the kind of experiment: microbe, parasite or virus in culture. It counts as cell-based.
Another data set deals with Huh7 cells. To be noted: initial screening.
Another data set deals with HEK293A2T2 cells. To be noted: initial screening.
Data set [4] has as its system SARS-CoV-2-nLUC. It counts as cell-based. Particulars: Nirmatrelvir 5 uM, Lonafarnib 0 uM.
The test system of data set [5] is SARS-CoV-2-nLUC. It counts as cell-based.
The test system of the next data set is lysosomal compartment. Nature of the data set: LysoTracker staining of VeroTA6 cells.
Another data set deals with viral RdRp (Severe acute respiratory syndrome coronavirus 2, UniProt P0DTD1). Nature of the data set: In vitro RdRp activity assay (RNA extension). Particulars: LNF 0.1, 1 and 10 μM; TEMPOL 100 μM. The format is biochemical, SARS-CoV-2.
For data set [6], the system named is SARS-CoV-2 strain USA-WA1/2020. It counts as in vivo, mouse. Particulars: mouse, in vivo.
For data set [7], the system named is SARS-CoV-2 strain USA-WA1/2020. The format is in vivo, mouse. To be noted: mouse, in vivo. The source holds these as a separate data set.

Experimental for lysosomal compartment: (A) VeroTA6 cells were seeded
post treatment, the cells were stained with lysotracker (Thermofisher, L7528) and visualized under
the microscope (left). The fluorescence intensity was captured and quantified for each treatment
B), the significance was calculated using one-way ANOVA with Dunnett’s test with multiple
comparison to the DMSO control, and the P values are depicted as ns for P>0.05, ** for P <0.01,

Regarding `COC(=O)[C@H](CCSC)NC(=O)c1ccc(NC[C@@H](N)CS)cc1-c1ccccc1` [FTI-277], the Replication in the data set with SARS-CoV-2-nLUC [1] (FTI-277, log concentration 0.670941) is 89.119 and 77.5271 and 84.1138 and 103.187; with SARS-CoV-2-nLUC [1] (FTI-277, log concentration 1.273) it was 92.4526 and 80.5819 and 108.059 and 113.995; in the data set with SARS-CoV-2-nLUC [1] (FTI-277, log concentration 1.87506) it was 83.8498 and 84.554 and 94.5905 and 116.747; in the data set with SARS-CoV-2-nLUC [1] (FTI-277, log concentration -0.232149) it was 89.4553 and 85.664 and 88.5087 and 105.35. Further, the half-maximal effective concentration (EC50) (in general, the concentration needed to bring the measured effect to its halfway point) in the data set on SARS-CoV-2-nLUC [1] came to 110 µM. Further, in the data set on SARS-CoV-2, the “time-of-addition result” value is reported as “modest effect on the early stage of infection, while the efficacy was much higher in the late stage”. Besides, the TOA was 1.616 and 2.237 and 1.147 and 1.155 and 1.238 and 1.196 and 1.435 in the data set on SARS-CoV-2 (treatment window (0,24)); 73.8837 and 74.2661 and 52.3189 and 51.5089 and 53.0507 and 54.4857 and 76.2725 and 76.8029 in the data set with SARS-CoV-2 (treatment window (2,4)); 151.258 and 149.655 and 121.084 and 123.07 and 140.174 and 141.115 and 96.719 and 94.1082 with SARS-CoV-2 (treatment window (-2,0)); 54.1321 and 53.7538 and 48.4664 and 48.121 and 49.0338 and 47.603 and 41.7688 and 40.1735 in the data set on SARS-CoV-2 (treatment window (-2,2)). Besides, the “anti-FTase activity, HDJ2 shift” value in data set [2] is given as “weaker anti-FTase activity”. Besides, the CC50 at 24 h in the data set “in vitro” is 220 µM.

In the case of `Cn1cncc1[C@@](N)(c1ccc(Cl)cc1)c1ccc2c(c1)c(-c1cccc(Cl)c1)cc(=O)n2C` [Tipifarnib, tipifarnib], the EC50 with SARS-CoV-2-nLUC [1] was determined as 8.86 µM. The Replication was 115.708 and 115.2 and 116.296 and 113.383 in the data set on SARS-CoV-2-nLUC [1] (Tipifarnib, log concentration 0.273001); 62.3306 and 62.0856 and 61.494 and 61.1331 in the data set with SARS-CoV-2-nLUC [1] (Tipifarnib, log concentration 0.875061); 101.05 and 102.091 and 101.412 and 103.944 in the data set on SARS-CoV-2-nLUC [1] (Tipifarnib, log concentration -0.630089); 100.484 and 100.389 and 101.92 and 99.313 in the data set on SARS-CoV-2-nLUC [1] (Tipifarnib, log concentration -1.23215). Further, the “time-of-addition result” value in the data set with SARS-CoV-2 is listed as “modest effect on the early stage of infection, while the efficacy was much higher in the late stage”. Also, the TOA with SARS-CoV-2 (treatment window (0,2)) is 76.7425 and 75.484 and 113.203 and 99.7613 and 81.3458 and 84.3089 and 102.68 and 108.689; with SARS-CoV-2 (treatment window (-2,0)), 92.86 and 92.659 and 88.2304 and 87.5224 and 122.157 and 114.273 and 92.7843 and 93.347; in the data set with SARS-CoV-2 (treatment window (-2,2)) it was 31.6226 and 35.7452 and 33.0851 and 30.5839 and 34.705 and 34.7924 and 25.2067 and 23.5518. Further, the CC50 at 24 h in “in vitro” was over 30 µM.

Consider `CN1CCN([C@@H](c2ccccc2)c2ccc(Cl)cc2)CC1` [NCGC00343775], for which the Max % in [3] amounted to 77.3%. Also, the CC50 with Huh7 cells is 11.2 µM; in the data set on HEK293A2T2 cells, over 30 µM.

`CC(C)(C)[C@H](NC(=O)C(F)(F)F)C(=O)N1C[C@H]2[C@@H]([C@H]1C(=O)N[C@H](C#N)C[C@@H]1CCNC1=O)C2(C)C` [NRTV, nirmatrelvir]: the Response in the data set on SARS-CoV-2-nLUC [4] was 21.0635 and 36.2768 and 23.2893; with SARS-CoV-2-nLUC [5], 96.7462 and 94.1773 and 94.981; in the data set on SARS-CoV-2-nLUC [5] (Lonafarnib 0 uM, Nirmatrelvir 0.3125 uM, sheet S3B, replicates) it was 50.9786 and 35.7701 and 31.2174; in the data set on SARS-CoV-2-nLUC [5] (Lonafarnib 0 uM, Nirmatrelvir 0.625 uM, sheet S3B, replicates), 89.9445 and 77.1784 and 77.0959; in the data set with SARS-CoV-2-nLUC [5] (Lonafarnib 0 uM, Nirmatrelvir 2.5 uM, sheet S3B, replicates) it was 97.3124 and 96.7918 and 96.5986; in the data set with SARS-CoV-2-nLUC [5] (Lonafarnib 0 uM, Nirmatrelvir 5 uM, sheet S3B, replicates), 97.4859 and 97.2147 and 96.9835.

As for `CN1CCC(N(Cc2cccs2)c2ccccc2)CC1` [NCGC00183847], the Max % in data set [3] is 64.0% and 54.6%. The concentration for a half-maximal effect (EC50) in [3] (read-out: EC50) is 11.4 µM and 18.4 µM. Also, the CC50 with Huh7 cells and in the data set on HEK293A2T2 cells was over 30 µM each time.

As for `Clc1ccc(C(c2ccccc2)N2CCNCC2)cc1` (centres unmarked) [NCGC00345880], the Max % in [3] is 99.6% and 75.2%. In addition, the CC50 was 13.4 µM in the data set on Huh7 cells and over 30 µM with HEK293A2T2 cells.

In the case of `CCN(CC)CCCC(C)Nc1ccnc2cc(Cl)ccc12` (centres unmarked) [CQ, Chloroquine], the “LysoTracker fluorescence intensity” value in the data set on lysosomal compartment (VeroTA6, 10 μM, 30 min) was “significant reduction in fluorescence intensity”. The Lysotracker with lysosomal compartment (sheet S5A, individual measurements) was 560.723 and 174.035 and 160.899 and 432.593 and 438.73 and 246.495 and 247.855 and 602.458 and 376.298 and 321.5 and 378.198 and 326.501 and 374.374 and 217.144 and 290.704 and 270.841 and 377.374 and 275.759 and 524.267 and 701.544 and 422.374.

Consider `CCN1CCN(C(c2ccc(Cl)cc2)c2ccc(Cl)cc2)CC1` [NCGC00351414], for which the Max % in data set [3] is 83.6%. The CC50 in the data set on Huh7 cells and in the data set with HEK293A2T2 cells was over 30 µM in each case.

On to `CC1(C)CC(O)CC(C)(C)N1[O]` [TEMPOL], for which the “polymerase activity, primer extension” value on viral RdRp is on record as “inhibited”.

The molecule `Clc1ccc(C(c2ccccc2)N2CCNCC2)cc1` (centres unmarked) [NCGC00245963] gave a Max % in data set [3] of 99.5%. For the same molecule, the CC50 with Huh7 cells and in the data set on HEK293A2T2 cells was over 30 µM throughout.

For the molecule `CCC(CC)COC(=O)[C@H](C)N[P@](=O)(OC[C@H]1O[C@@](C#N)(c2ccc3c(N)ncnn23)[C@H](O)[C@@H]1O)Oc1ccccc1` [RDV, Remdesivir], the “time-of-addition result” value in the data set on SARS-CoV-2 was “minimal effect when added for a limited duration at early time points, but showed maximum efficacy when it was added later after infection”. For the same molecule, the “lung viral titer” value in data set [6] was “did not show much reduction in viral titers”. In addition, in [7], the “composite clinical score” value is “much improved disease parameters”.

Take `CN1CCN([C@H](c2ccccc2)c2ccc(Cl)cc2)CC1` [NCGC00343774]: the Max % in [3] is recorded as 66.4%. Also, the CC50 was 14.4 µM in the data set with Huh7 cells and over 30 µM in the data set with HEK293A2T2 cells.
